Experimental data reported in ChEMBL document CHEMBL1145735, “Synthesis and antitumor activity of novel C-8 ester derivatives of leinamycin” (Bioorg Med Chem Lett, 2003).

Legend:
[1] = tested on: HeLa; assay: In vitro antiproliferative activity against HeLa S3 cells.; type: functional, cell-based; conditions: Homo sapiens
[2] = tested on: Mus musculus; assay: In vivo antitumor activity against lymphocytic leukemia P388 in mice expressed as maximal increase in life span at an optimal dose of 8 mg/kg.; type: functional
[3] = tested on: Mus musculus; assay: In vivo antitumor activity against murine sarcoma 180 cells at an optimal dose of 8 mg/kg.; type: functional
[4] = tested on: Mus musculus; assay: In vivo antitumor activity against murine sarcoma 180 cells at an optimal dose of 16 mg/kg.; type: functional
[5] = tested on: Mus musculus; assay: In vivo antitumor activity against murine sarcoma 180 cells at an optimal dose of 4 mg/kg.; type: functional
[6] = tested on: Mus musculus; assay: In vivo antitumor activity against lymphocytic leukemia P388 in mice expressed as maximal increase in life span at an optimal dose of 4 mg/kg.; type: functional
[7] = tested on: Mus musculus; assay: Antitumor activity against human HCT116 tumor cells, at a dose of 8 mg/kg upon i.v. administration in nude mice; type: functional; conditions: route intravenous
[8] = tested on: Mus musculus; assay: Antitumor activity against human A-2780 tumor cells, at a dose of 8 mg/kg upon i.v. administration in nude mice; type: functional; conditions: route intravenous
[9] = tested on: Mus musculus; assay: Antitumor activity against human Lu-65 tumor cells, at a dose of 8 mg/kg upon i.v. administration in nude mice; type: functional; conditions: route intravenous
[10] = tested on: Mus musculus; assay: In vivo antitumor activity against lymphocytic leukemia P388 in mice expressed as maximal increase in life span at an optimal dose of 16 mg/kg.; type: functional
[11] = tested on: Mus musculus; assay: In vivo antitumor activity against murine sarcoma 180 cells at an optimal dose of 2 mg/kg.; type: functional
[12] = tested on: Mus musculus; assay: In vivo antitumor activity against lymphocytic leukemia P388 in mice expressed as maximal increase in life span at an optimal dose of 1 mg/kg.; type: functional

| SMILES | IC50 [1] [nM] | T/C [3] | further results |
| --- | --- | --- | --- |
| C/C1=C\[C@@H](OC(=O)CNC(=O)CNC(=O)c2ccccc2)C(=O)/C=C/C=C\c2csc(n2)[C@H](C)NC(=O)C[C@@]2(CC1)[S+]([O-])SC(=O)[C@]2(C)O (stereo partly specified) | 8.7 | 0.42 | ILS at 8 mg/kg [2]: 78% |
| COCCOCCOCCOCCOCC(=O)O[C@@H]1/C=C(\C)CC[C@]2(CC(=O)N[C@@H](C)c3nc(cs3)/C=C\C=C\C1=O)[S+]([O-])SC(=O)[C@]2(C)O (stereo partly specified) | 240 | 0.51 |  |
| COCCOCC(=O)OCCOCCOCC(=O)O[C@@H]1/C=C(\C)CC[C@]2(CC(=O)N[C@@H](C)c3nc(cs3)/C=C\C=C\C1=O)[S+]([O-])SC(=O)[C@]2(C)O (stereo partly specified) |  | 0.12 |  |
| C/C1=C\[C@@H](OC(=O)CNC(=O)[C@@H](C)NC(=O)OCc2ccccc2)C(=O)/C=C/C=C\c2csc(n2)[C@H](C)NC(=O)C[C@@]2(CC1)[S+]([O-])SC(=O)[C@]2(C)O (stereo partly specified) | 34 |  | ILS at 8 mg/kg [2]: 58%; T/C [4]: 0.61 |
| COCCOCCOCC(=O)O[C@@H]1/C=C(\C)CC[C@]2(CC(=O)N[C@@H](C)c3nc(cs3)/C=C\C=C\C1=O)[S+]([O-])SC(=O)[C@]2(C)O (stereo partly specified) | 66 |  | T/C [5]: 0.3 |
| C/C1=C\[C@@H](OC(=O)CNC(=O)CN(C)C(=O)OCc2ccccc2)C(=O)/C=C/C=C\c2csc(n2)[C@H](C)NC(=O)C[C@@]2(CC1)[S+]([O-])SC(=O)[C@]2(C)O (stereo partly specified) | 67 | 0.61 | ILS at 4 mg/kg [6]: 70% |
| C/C1=C\[C@@H](OC(=O)COCCOCCOCCOCCO)C(=O)/C=C/C=C\c2csc(n2)[C@H](C)NC(=O)C[C@@]2(CC1)[S+]([O-])SC(=O)[C@]2(C)O (stereo partly specified) |  | 0.18 |  |
| C/C1=C\[C@@H](OC(=O)[C@@H](C)NC(=O)OCc2ccccc2)C(=O)/C=C/C=C\c2csc(n2)[C@H](C)NC(=O)C[C@@]2(CC1)[S+]([O-])SC(=O)[C@]2(C)O (stereo partly specified) | 45 |  | ILS at 4 mg/kg [6]: 52%; T/C [5]: 0.56 |
| C/C1=C\[C@@H](OC(=O)CNC(=O)[C@H](NC(=O)OCc2ccccc2)C(C)C)C(=O)/C=C/C=C\c2csc(n2)[C@H](C)NC(=O)C[C@@]2(CC1)[S+]([O-])SC(=O)[C@]2(C)O (stereo partly specified) | 16 | 0.56 | ILS at 8 mg/kg [2]: 67% |
| C/C1=C\[C@@H](OC(=O)CCNC(=O)OCc2ccccc2)C(=O)/C=C/C=C\c2csc(n2)[C@H](C)NC(=O)C[C@@]2(CC1)[S+]([O-])SC(=O)[C@]2(C)O (stereo partly specified) | 40 |  | ILS at 4 mg/kg [6]: 53%; T/C [5]: 0.79 |
| C/C1=C\[C@@H](OC(=O)CNC(=O)CCNC(=O)OC(C)(C)C)C(=O)/C=C/C=C\c2csc(n2)[C@H](C)NC(=O)C[C@@]2(CC1)[S+]([O-])SC(=O)[C@]2(C)O (stereo partly specified) | 170 | 0.45 | ILS at 8 mg/kg [2]: 67% |
| C/C1=C\[C@@H](OC(=O)CNC(=O)CNC(=O)OC(C)(C)C)C(=O)/C=C/C=C\c2csc(n2)[C@H](C)NC(=O)C[C@@]2(CC1)[S+]([O-])SC(=O)[C@]2(C)O (stereo partly specified) | 20 | 0.22 | ILS at 8 mg/kg [2]: 46%; T/C [7]: 0.7; T/C [8]: 0.73; T/C [9]: 0.43 |
| C/C1=C\[C@@H](OC(=O)CNC(=O)CCNC(=O)OCc2ccccc2)C(=O)/C=C/C=C\c2csc(n2)[C@H](C)NC(=O)C[C@@]2(CC1)[S+]([O-])SC(=O)[C@]2(C)O (stereo partly specified) | 20 | 0.55 | ILS at 16 mg/kg [10]: 76% |
| C/C1=C\[C@@H](OC(=O)CN(C)C(=O)OCc2ccccc2)C(=O)/C=C/C=C\c2csc(n2)[C@H](C)NC(=O)C[C@@]2(CC1)[S+]([O-])SC(=O)[C@]2(C)O (stereo partly specified) | 52 | 0.74 | ILS at 4 mg/kg [6]: 48% |
| COCCOCCOCCOCCOCCOCCOCC(=O)O[C@@H]1/C=C(\C)CC[C@]2(CC(=O)N[C@@H](C)c3nc(cs3)/C=C\C=C\C1=O)[S+]([O-])SC(=O)[C@]2(C)O (stereo partly specified) | 210 |  |  |
| CC(=O)NCC(=O)O[C@@H]1/C=C(\C)CC[C@]2(CC(=O)N[C@@H](C)c3nc(cs3)/C=C\C=C\C1=O)[S+]([O-])SC(=O)[C@]2(C)O (stereo partly specified) | 13 |  | ILS at 4 mg/kg [6]: 66%; T/C [11]: 0.67 |
| C/C1=C\[C@@H](O)C(=O)/C=C/C=C\c2csc(n2)[C@H](C)NC(=O)C[C@@]2(CC1)[S+]([O-])SC(=O)[C@]2(C)O (stereo partly specified) | 28 |  | ILS at 1 mg/kg [12]: 64%; T/C [11]: 0.44 |
